Test results as given in US5753650A, “Inhibitors of farnesyl-protein transferase” (Merck & Co., Inc., priority 1996, dated 1998).

Each molecule was assayed against Farnesyl-protein transferase (FTase) (assay: In vitro inhibition of Ras farnesyl transferase (farnesylation of Ras-CVLS with [3H]FPP)). Conditions: Ras-CVLS 3.5 μM, [3H]FPP 0.25 μM; partially purified bovine or recombinant human enzyme; read-out: IC50 (concentration of the test compound which gives 50% inhibition of FTase).
Type: biochemical
Procedure: Farnesyl-protein transferase (FTase) from bovine brain was chromatographed on DEAE-Sephacel (Pharmacia, 0-0.8 M NaCl gradient elution), N-octyl agarose (Sigma, 0-0.6 M NaCl gradient elution), and a mono Q HPLC column (Pharmacia, 0-0.3 M NaCl gradient). Ras-CVLS at 3.5 μM, 0.25 μM [^3 H]FPP, and the indicated compounds were incubated with either a partially purified bovine enzyme preparation or a recombinant human enzyme preparation. The recombinant human enzyme was prepared as described in Omer, C. A., Kral, A. M., Diehl, R. E., Prendergast, G. C., Powers, S., Allen, C. M., Gibbs, J. B. and Kohl, N. E. (1993) Biochemistry 32:5167-5176. The FTase data presented below in Table 1 reflects the ability of the test compound to inhibit RAS farnesylation in vitro, as described in Pompliano, et al. Biochemistry 31:3800 (1992).
*(IC50 is the concentration of the test compound which gives 50%
inhibition of FTase under the described assay conditions)
For `CN(C(=O)[C@@H](N)CS)C1N=C(c2ccccc2)c2ccccc2NC1=O` (single isomer, unassigned) [1 - faster eluting isomer], the IC50 was 2.6 µM.
With `N[C@@H](CS)C(=O)NC1N=C(c2ccccc2)c2ccccc2NC1=O` (single isomer, unassigned) [2 - faster eluting isomer] the IC50 was 1.6 µM.
Work on “3-[N-2(S)-amino-3-mercaptopropionyl-N-methyl]amino-2,3-dihydro-2-oxo-5-phenyl-1H-1,4-benzodiazepine [1 - slower eluting isomer]” yielded an IC50 of 0.11 µM.
Work on `N[C@@H](CS)C(=O)NC1N=C(c2ccccc2)c2ccccc2NC1=O` (single isomer, unassigned) [2 - slower eluting isomer] yielded an IC50 of 42 µM.
